# Source: US11660354B2, “Inhibitor-functionalized ultrasmall nanoparticles and methods thereof” (Memorial Sloan Kettering Cancer Center, priority 2016, dated 2023)
# Where two headings read alike, the source gives them in different places. Square brackets hold non-standard residues; d marks the D form. Sta = CC(C)C[C@H](N)[C@@H](O)CC(=O)O; Ahx = NCCCCCC(=O)O
# Assays:
# [1] = system: PC lesion and metastatic LNs; experiment: Clinical PET with ^68Ga-RM2 and ^68Ga-PSMA-11 in prostate cancer patients; type: in vivo; settings: patient with biochemical recurrence of PC
# Description: FIGS. 20A-20B show a patient with biochemical recurrence of PC imaged with PSMA ligand ^68Ga-PSMA-11 and GRPr ligand ^68Ga-RM2. ^68Ga-PSMA-11 scan acquired 4 weeks after the ^68Ga-RM2 scan. Retroperitoneal LN metastases are better visualized on the GRPr scan than on the PSMA scan.
# [2] = type: in vitro ADME; settings: serum
# Protocol: PSMAi-NOTA-C′ dots (21 μmol) were radiolabeled with ^64Cu or ^177Lu (210 pmol) in NH4Ac buffer pH 5.5 at 70° C. for 20 min. The average radiolabeling yields were 98.6% and 99.3% radiochemical purities of 98% and 99.9%. Stabilities of the radiolabeled particle complexes were examined in water, saline, and serum (Table 1).
# In the final step, PSMA and GRPr targeted C′ dots can be radiolabeled with ^64Cu and ^67Ga at various concentrations (˜0.3-300 nmol) in acetate buffer (pH 5.5) for 30 min and at 70° C. to obtain PSMAi-(^64Cu)NOTA-C′ dots and GRP-(^67Ga)DOTA-C′ dots. For ^89Zr labeling, as-synthesized PSMAi-DFO-C′ dot can be incubated with ^89Zr-oxalate at 37° C. for 30 min (pH 7-8). Radiolabeled PSMA-targeting C′ dots and GRPr-targeting C′ dots can be purified using PD-10 (G-25) size exclusion chromatography. For radiolabeling experiments, specific radiolabeling parameters can be determined for optimal radiolabeling efficiencies and high specific activities. Labeling can begin with the conditions shown to produce the highest specific activity. Quality control includes ITLC, HPLC, and cell-based receptor binding bioassays. Stability of radiolabeled C′ dots can be determined in H2O, PBS at 25° C. and mouse and human serum at 37° C.
# [3] = system: LNCaP cells; experiment: Radiolabeled particle cell binding and internalization, LNCaP cells; type: cell-based
# Protocol: (§1) Blocking studies show specific uptake.
# (§2) PSMAi-(^64Cu)NOTA-C′ dots and GRP-(^177Lu)DOTA-C′ dots were examined for cell binding with LNCaP and PC3 cells (FIGS. 11A-11C). Cells were incubated with 100,000 CPM of PD10 purified radiolabeled C′ dots. PMPA and bombesin were used for blocking PSMAi and GRP radiolabeled C′ dots. After 3 PBS washes, the membrane surface-bound fraction was removed with 40 mM NaOAc (pH=4.5, 0.9% NaCl, 0.2% BSA), after which the cells were dissolved in NaOH to obtain internalized counts.
# [4] = system: PC3 cells; experiment: Radiolabeled particle cell binding and internalization, PC3 cells; type: cell-based
# Protocol: as §1, §2
# [5] = system: TRAMP-C2 cell line; experiment: Binding of radiolabeled C′ dots to the TRAMP-C2 cell line; type: cell-based, mouse
# Description: The advantages of the TRAMP model are the development of disease that mirrors human pathology in an immune competent mouse, coupled with the formation of LN and bone metastases. Disadvantages are that the biology/physiology of mouse prostate is not the same as the human organ. For example, the mouse prostate is not a single organ, as in human, but has 4 lobes, different from the single organ human prostate. The advantage of the TRAMP model is the ability to image metastatic disease and nodal metastases with PSMA- and GRPr-targeting C′ dots using PET and fluorescence-based multiplexing. Binding studies of PSMAi-(^67Ga)NOTA-C′ dots and GRP-(^177Lu)DOTA-C′ dots to the TRAMP-C2 cell line were examined (FIG. 17). The TRAMP-C2 cell line was derived from TRAMP prostate tumors. Both the PSMAi-(^67Ga)NOTA-C′ dots and GRP-(^177Lu)DOTA-C′ dots bound the TRAMP-C2 cell line. […] This model enables proof-of-concept studies to be conducted for multiplexed detection of nodal metastases using a cocktail of PSMAi-PEG-Cy5.5-C′ dots and GRP-PEG-CW800-C′ dots.
Molecule,normal organ uptake [1],"percent radiolabeled C′ dot stability ([2]; human, 1 h)","percent radiolabeled C′ dot stability ([2]; human, 4 h)","percent radiolabeled C′ dot stability ([2]; human, 24 h)","percent radiolabeled C′ dot stability ([2]; mouse, 1 h)","percent radiolabeled C′ dot stability ([2]; mouse, 4 h)","percent radiolabeled C′ dot stability ([2]; mouse, 24 h)","cell binding, uptake and internalization [3]","cell binding, uptake and internalization [4]",binding in the presence of bombesin ([4]; blocking with bombesin),binding to TRAMP-C2 cell line with RM2 peptide ([5]; addition of an excess of GRPr targeting RM2 peptide),binding to TRAMP-C2 cell line ([5]; alone)
"O=C(O)CCc1ccc(O)c(CN(CCN(CC(=O)O)Cc2cc(CCC(=O)NCCCCCC(=O)NCCCC[C@H](NC(=O)N[C@@H](CCC(=O)O)C(=O)O)C(=O)O)ccc2O)CC(=O)O)c1 (68Ga complex, metal not drawn) [PSMA-11]",very high RES and renal uptake,,,,,,,,,,,
"GRP-(^177Lu)DOTA-C′ dots: GRP antagonist-DOTA peptide-functionalized C′ dots radiolabeled with ^177Lu ({Ac-Cys-Ahx-Ahx-K(DOTA)-4‑amino‑1‑carboxymethyl‑piperidine}-HQWAVGH[Sta]L-NH2; also: Cys thiol bound to maleimide-PEG-silane on silica nanoparticle, DOTA labelled with 177Lu)",,99.9%,99.9%,99.8%,99.9%,99.8%,98.6%,low levels of binding,"bound PC3 cells, but were not efficiently internalized",blocked,significantly reduced,bound
